ChEMBL document CHEMBL3217491, “Design, synthesis and biological evaluation of imidazopyridine/pyrimidine-chalcone derivatives as potential anticancer agents” (2010)
Active and inactive are the calls of the source. The rule behind the calls is not given here.

Tests used:
[1] = Growth inhibition of human OVCAR8 cells after 48 hrs by SRB assay; format: functional; settings: OVCAR-8, 48 h
[2] = test system: K562; assay: Growth inhibition of human K562 cells after 48 hrs by SRB assay; format: functional; settings: K562, 48 h
[3] = test system: MCF7; assay: Cell cycle arrest in human MCF7 cells assessed as accumulation at G2/M phase at 4 uM after 24 hrs by propidium iodide staining-based flow cytometry (reference value: 15.79%); format: functional
[4] = test system: SK-MEL-2; assay: Growth inhibition of human SK-MEL-2 cells after 48 hrs by SRB assay; format: functional; settings: SK-MEL-2, 48 h
[5] = test system: SNB-19; assay: Growth inhibition of human SNB19 cells after 48 hrs by SRB assay; format: functional; settings: SNB-19, 48 h
[6] = Growth inhibition of human NCI-ADR-RES cells after 48 hrs by SRB assay; format: functional
[7] = Growth inhibition of human MOLT4 cells after 48 hrs by SRB assay; format: functional; settings: MOLT-4, 48 h
[8] = test system: SK-MEL-28; assay: Growth inhibition of human SK-MEL-28 cells after 48 hrs by SRB assay; format: functional; settings: SK-MEL-28, 48 h
[9] = test system: HL-60(TB); assay: Growth inhibition of human HL-60(TB) cells after 48 hrs by SRB assay; format: functional; settings: HL-60, 48 h
[10] = Growth inhibition of human UO31 cells after 48 hrs by SRB assay; format: functional; settings: UO-31, 48 h
[11] = test system: T47D; assay: Growth inhibition of human T47D cells after 48 hrs by SRB assay; format: functional
[12] = test system: KM12; assay: Growth inhibition of human KM12 cells after 48 hrs by SRB assay; format: functional; settings: KM12, 48 h
[13] = Growth inhibition of human BT549 cells after 48 hrs by SRB assay; format: functional; settings: BT-549, 48 h
[14] = test system: CCRF-CEM; assay: Growth inhibition of human CCRF-CEM cells after 48 hrs by SRB assay; format: functional
[15] = test system: MCF7; assay: Cell cycle arrest in human MCF7 cells assessed as accumulation at S phase at 4 uM after 24 hrs by propidium iodide staining-based flow cytometry (reference value: 20.17%); format: functional
[16] = Growth inhibition of human SF539 cells after 48 hrs by SRB assay; format: functional; settings: SF-539, 48 h
[17] = Growth inhibition of human LOXIMVI cells after 48 hrs by SRB assay; format: functional; settings: LOX IMVI
[18] = test system: 786-0; assay: Growth inhibition of human 786-0 cells after 48 hrs by SRB assay; format: functional; settings: 786-0, 48 h
[19] = test system: HCT-116; assay: Growth inhibition of human HCT116 cells after 48 hrs by SRB assay; format: functional; settings: HCT-116, 48 h
[20] = test system: DU-145; assay: Growth inhibition of human DU145 cells after 48 hrs by SRB assay; format: functional; settings: DU-145, 48 h
[21] = test system: SN12C; assay: Growth inhibition of human SN12C cells after 48 hrs by SRB assay; format: functional
[22] = Growth inhibition of human OVCAR5 cells after 48 hrs by SRB assay; format: functional; settings: OVCAR-5, 48 h
[23] = Growth inhibition of human UACC62 cells after 48 hrs by SRB assay; format: functional; settings: UACC-62, 48 h
[24] = test system: ACHN; assay: Growth inhibition of human ACHN cells after 48 hrs by SRB assay; format: functional
[25] = Growth inhibition of human HOP92 cells after 48 hrs by SRB assay; format: functional; settings: HOP-92, 48 h
[26] = Growth inhibition of human HCT15 cells after 48 hrs by SRB assay; format: functional; settings: HCT-15, 48 h
[27] = test system: SNB-75; assay: Growth inhibition of human SNB75 cells after 48 hrs by SRB assay; format: functional; settings: SNB-75, 48 h
[28] = test system: TK-10; assay: Growth inhibition of human TK10 cells after 48 hrs by SRB assay; format: functional; settings: TK-10, 48 h
[29] = test system: SK-MEL-5; assay: Growth inhibition of human SK-MEL-5 cells after 48 hrs by SRB assay; format: functional; settings: SK-MEL-5, 48 h
[30] = test system: MDA-MB-468; assay: Growth inhibition of human MDA-MB-468 cells after 48 hrs by SRB assay; format: functional; settings: MDA-MB-468, 48 h
[31] = test system: CAKI-1; assay: Growth inhibition of human Caki1 cells after 48 hrs by SRB assay; format: functional; settings: CAKI-1, 48 h
[32] = test system: A549; assay: Growth inhibition of human A549 cells after 48 hrs by SRB assay; format: functional; settings: A549, 48 h
[33] = test system: HT-29; assay: Growth inhibition of human HT-29 cells after 48 hrs by SRB assay; format: functional; settings: HT-29, 48 h
[34] = test system: SK-OV-3; assay: Growth inhibition of human SKOV3 cells after 48 hrs by SRB assay; format: functional; settings: SK-OV-3, 48 h
[35] = test system: NCI-H522; assay: Growth inhibition of human NCI-H522 cells after 48 hrs by SRB assay; format: functional; settings: NCI-H522, 48 h
[36] = test system: HOP-62; assay: Growth inhibition of human HOP62 cells after 48 hrs by SRB assay; format: functional; settings: HOP-62, 48 h
[37] = test system: M14; assay: Growth inhibition of human M14 cells after 48 hrs by SRB assay; format: functional; settings: M14, 48 h
[38] = test system: SR; assay: Growth inhibition of human SR cells after 48 hrs by SRB assay; format: functional
[39] = test system: PC-3; assay: Growth inhibition of human PC3 cells after 48 hrs by SRB assay; format: functional; settings: PC-3, 48 h
[40] = Growth inhibition of human UACC257 cells after 48 hrs by SRB assay; format: functional; settings: UACC-257, 48 h
[41] = test system: IGROV-1; assay: Growth inhibition of human IGROV1 cells after 48 hrs by SRB assay; format: functional; settings: IGROV-1, 48 h
[42] = test system: NCI-H460; assay: Growth inhibition of human NCI-H460 cells after 48 hrs by SRB assay; format: functional; settings: NCI-H460, 48 h
[43] = test system: RPMI-8226; assay: Growth inhibition of human RPMI8226 cells after 48 hrs by SRB assay; format: functional; settings: RPMI-8226, 48 h
[44] = test system: NCI-H23; assay: Growth inhibition of human NCI-H23 cells after 48 hrs by SRB assay; format: functional; settings: NCI-H23, 48 h
[45] = test system: NCI-H322M; assay: Growth inhibition of human NCI-H322M cells after 48 hrs by SRB assay; format: functional
[46] = test system: Malme-3M; assay: Growth inhibition of human MALME-3M cells after 48 hrs by SRB assay; format: functional
[47] = test system: MCF7; assay: Growth inhibition of human MCF7 cells assessed as cell viability at 4 uM after 24 hrs by MTT assay; format: functional, cell-based
[48] = test system: COLO 205; assay: Growth inhibition of human COLO205 cells after 48 hrs by SRB assay; format: functional; settings: COLO 205, 48 h
[49] = test system: NCI-H226; assay: Growth inhibition of human NCI-H226 cells after 48 hrs by SRB assay; format: functional; settings: NCI-H226, 48 h
[50] = Growth inhibition of human RXF393 cells after 48 hrs by SRB assay; format: functional; settings: RXF 393, 48 h
[51] = Growth inhibition of human OVCAR4 cells after 48 hrs by SRB assay; format: functional; settings: OVCAR-4, 48 h
[52] = test system: U-251; assay: Growth inhibition of human U251 cells after 48 hrs by SRB assay; format: functional; settings: U-251, 48 h
[53] = test system: MCF7; assay: Cell cycle arrest in human MCF7 cells assessed as accumulation at G0/G1 phase at 4 uM after 24 hrs by propidium iodide staining-based flow cytometry (reference value: 64.04%); format: functional
[54] = test system: SW-620; assay: Growth inhibition of human SW620 cells after 48 hrs by SRB assay; format: functional; settings: SW-620, 48 h
[55] = Growth inhibition of human Hs578T cells after 48 hrs by SRB assay; format: functional; settings: Hs-578T
[56] = test system: MCF7; assay: Growth inhibition of human MCF7 cells after 48 hrs by SRB assay; format: functional; settings: MCF7, 48 h
[57] = test system: A498; assay: Growth inhibition of human A498 cells after 48 hrs by SRB assay; format: functional; settings: A498, 48 h
[58] = Growth inhibition of human SF295 cells after 48 hrs by SRB assay; format: functional; settings: SF-295, 48 h
[59] = Growth inhibition of human HCC2998 cells after 48 hrs by SRB assay; format: functional; settings: HCC 2998, 48 h
[60] = test system: MDA-MB-231; assay: Growth inhibition of human MDA-MB-231 cells after 48 hrs by SRB assay; format: functional; settings: MDA-MB-231, 48 h
[61] = Growth inhibition of human OVCAR3 cells after 48 hrs by SRB assay; format: functional; settings: OVCAR-3, 48 h
[62] = test system: MDA-MB-435; assay: Growth inhibition of human MDA-MB-435 cells after 48 hrs by SRB assay; format: functional; settings: MDA-MB-435, 48 h
[63] = Growth inhibition of human EKVX cells after 48 hrs by SRB assay; format: functional
[64] = test system: SF-268; assay: Growth inhibition of human SF268 cells after 48 hrs by SRB assay; format: functional; settings: SF-268, 48 h

COc1ccc(-c2nc3ncccn3c2/C=C/C(=O)c2cc(OC)c(OC)c(OC)c2)cc1
GI50 [1]: 2720 nM
GI50 [2]: 2630 nM
Activity [3]: 1.53%
GI50 [4]: 1870 nM
GI50 [5]: 3.01 µM
GI50 [6]: 1560 nM
GI50 [7]: 3.1 µM
GI50 [8]: 1650 nM
GI50 [9]: 2520 nM
GI50 [10]: 510 nM
GI50 [11]: 2530 nM
GI50 [12]: 1610 nM
GI50 [13]: 1450 nM
GI50 [14]: 4.01 µM
Activity [15]: 8.43%
GI50 [16]: 1360 nM
GI50 [17]: 1460 nM
GI50 [18]: 1840 nM
GI50 [19]: 1170 nM
GI50 [20]: 2550 nM
GI50 [21]: 2560 nM
GI50 [22]: 1530 nM
GI50 [23]: 1880 nM
GI50 [24]: 1570 nM
GI50 [25]: 1430 nM
GI50 [26]: 1380 nM
GI50 [27]: 1890 nM
GI50 [28]: 2880 nM
GI50 [29]: 1520 nM
GI50 [30]: 1810 nM
GI50 [31]: 1580 nM
GI50 [32]: 2710 nM
GI50 [33]: 2190 nM
GI50 [34]: 2500 nM
GI50 [35]: 1660 nM
GI50 [36]: 2830 nM
GI50 [37]: 1530 nM
GI50 [38]: 1530 nM
GI50 [39]: 4.32 µM
GI50 [40]: 1820 nM
GI50 [41]: 2200 nM
GI50 [42]: 1430 nM
GI50 [43]: 2210 nM
GI50 [44]: 1350 nM
GI50 [45]: 1760 nM
GI50 [46]: 1810 nM
inhibition [47]: Active
GI50 [48]: 1700 nM
GI50 [49]: 2280 nM
GI50 [50]: 1110 nM
GI50 [51]: 2910 nM
GI50 [52]: 1290 nM
Activity [53]: 90.04%
GI50 [54]: 1750 nM
GI50 [55]: 1910 nM
GI50 [56]: 1140 nM
GI50 [57]: 2130 nM
GI50 [58]: 2390 nM
GI50 [59]: 1580 nM
GI50 [60]: 2730 nM
GI50 [61]: 1750 nM
GI50 [62]: 2280 nM
GI50 [63]: 1610 nM
GI50 [64]: 2360 nM
